Source: US20100130359A1 (priority 2007, published 2010)

Key:
Phytophthora infestans = assay type: in vivo, Phytophthora infestans on tomato plants; details: 250 ppm active compound, sprayed one day before infection, assessed after 6 days; untreated plants 80% infected
Septoria tritici = test: Protective activity against Septoria leaf blotch of wheat caused by Septoria tritici; assay type: in vivo, Septoria tritici on wheat seedlings; details: 250 ppm active compound, sprayed six days after inoculation, assessed after 14 days; untreated plants 90% infected
Procedure: The active compounds were prepared as a stock solution comprising 25 mg of active compound which was made up to 10 ml using a mixture of acetone and/or DMSO and the emulsifier Uniperol® EL (wetting agent having emulsifying and dispersing action based on ethoxylated alkylphenols) in a volume ratio of solvent/emulsifier of 99/1. The mixture was then made up to 100 ml with water. This stock solution was diluted with the solvent/emulsifier/water mixture described to the concentration of active compounds stated below. Alternatively, the active compounds were used as a commercial finished formulation and diluted with water to the stated active compound concentration.
Leaves of potted wheat seedlings were inoculated with a spore suspension of the leaf blotch disease Septoria tritici. The test plants were then placed in a greenhouse at temperatures between 20 and 22° C. and a relative atmospheric humidity of close to 100% and then at temperatures between 16 and 18° C. and an atmospheric humidity of about 70% for 4 days. Six days after the inoculation, the plants were sprayed to runoff point with an aqueous active compound solution having the concentration stated below. After the spray coating had dried on, the plants were returned. After 14 days, the extent of the development of the disease was determined visually in % infection of the entire leaf area.

Cc1nnc(Cl)c(-c2c(F)cc(OCCCN(C)C)cc2F)c1-c1ccc(Cl)cc1 [Compound I-1, (3-{-4-[3-chloro-5-(4-chlorophenyl)-6-methylpyridazin-4-yl]-3,5-difluorophenoxy}propyl)dimethylamine]
infection of treated tomato plants (late blight), determined visually (Phytophthora infestans): no infection
infection of the entire leaf area of treated wheat plants, determined visually (Septoria tritici): 10%
